Measured values from patent publication US4182896A, “Indane derivatives” (Societe Hexachimie, priority 1974, dated 1980).
Where a name gives a salt, the structure may show the parent alone.

Tests used:
[1] = system: SPF male rats, OFA strain; assay: Anti-inflammatory activity: paw swelling after subcutaneous plantar injection of carraghenine, oral administration; format: in vivo; conditions: for inhibition in vivo at 32 mg/kg: 32 mg/kg oral; for ED50: read-out: ED50 (50% effective dose), anti-inflammatory; for inhibition in vivo at 512 mg/kg: 512 mg/kg oral
Protocol: Anti-inflammatory activity
The products to be tested are administered orally to batches of 12 SPF male rats, OFA strain, weighing 120-130 g, 2 hours and 30 minutes (1/2 dose each time) before the subcutaneous plantar injection of 0.05 ml of a 1% strength solution of carraghenine. The volume of the back paw which received the phlogogenic agent is measured at regular intervals. The 50% effective dose is calculated at the moment of greatest swelling of the controls.
The results are given in Tables I to IV below, in which the percentage reduction in the inflammation is noted.

[2] = system: male mice (SPF1, OF1 strain); assay: Analgesic activity: inhibition of pain reactions (abdominal twistings) after intraperitoneal phenylbenzoquinone, oral administration; format: in vivo; conditions: for ED50: read-out: ED50 (50% effective dose), analgesic; for inhibition in vivo at 4 mg/kg: 4 mg/kg oral; for inhibition in vivo at 8 mg/kg: 8 mg/kg oral; for inhibition in vivo at 512 mg/kg: 512 mg/kg oral; for percentage inhibition of pain reactions: mouse
Protocol: The products tested are administered orally to batches of 6 male mice (SPF1, OF1 strain) weighing 19-20 g.
1 hour later, 0.3 ml of a 0.02% strength solution of phenylbenzoquinone is injected intraperitoneally into each mouse and, from the 5th to the 10th minute after the latter treatment, the number of pain reactions (abdominal twistings) is counted.
Table V to VIII below give the percentage inhibition of these reactions.

[3] = Rattus norvegicus, po, 16 mg/kg oral, carraghenine, read-out: percentage reduction in the inflammation
[4] = Rattus norvegicus, po, carraghenine, read-out: percentage reduction in the inflammation
[5] = Rattus norvegicus, po, 64 mg/kg oral, carraghenine, read-out: percentage reduction in the inflammation
[6] = Rattus norvegicus, po, at the moment of greatest swelling of the controls
[7] = Mus musculus, po, 32 mg/kg oral, read-out: percentage inhibition of pain reactions
[8] = Mus musculus, po, 64 mg/kg oral, read-out: percentage inhibition of pain reactions
[9] = Mus musculus, po, 128 mg/kg oral, read-out: percentage inhibition of pain reactions
[10] = Mus musculus, po, 256 mg/kg oral, read-out: percentage inhibition of pain reactions
[11] = Rattus norvegicus, po, 128 mg/kg oral, carraghenine, read-out: percentage reduction in the inflammation
[12] = Rattus norvegicus, po, 256 mg/kg oral, carraghenine, read-out: percentage reduction in the inflammation
[13] = Mus musculus, po, read-out: percentage inhibition of pain reactions
[14] = Mus musculus, po, 16 mg/kg oral, read-out: percentage inhibition of pain reactions

Structure (SMILES)	inhibition in vivo at 16 mg/kg [1, 3]	inhibition in vivo at 32 mg/kg [1, 4]	inhibition in vivo at 64 mg/kg [1, 5]	ED50 [1, 6]	inhibition in vivo at 32 mg/kg [2, 7]	inhibition in vivo at 64 mg/kg [2, 8]	inhibition in vivo at 128 mg/kg [2, 9]	inhibition in vivo at 256 mg/kg [2, 10]	ED50 ([2]; Mus musculus, po)	inhibition in vivo at 128 mg/kg [1, 11]	inhibition in vivo at 256 mg/kg [1, 12]	inhibition in vivo at 8 mg/kg [2, 13]	inhibition in vivo at 16 mg/kg [2, 14]	further results
CC(C(=O)OCCN1CCOCC1)c1ccc2c(c1)CC(C(C)C)C2 (stereo not drawn) [Example 9, Morpholino-ethyl ester of 2-methyl-[2-isopropyl-indanyl-(5)]-acetic acid]	47%	68%	80%	17 mg/kg	28%	26%	79%	97%	78 mg/kg	–	–	–	–	–
CCN(CC)CCOC(=O)C(C)c1ccc2c(c1)CC(C(C)C)C2 (stereo not drawn) [Example 28, Oxalate of the diethylaminoethyl ester of 2-methyl-[2-isopropylindanyl-(5)]-acetic acid]	31%	–	66%	24 mg/kg	66%	86%	–	–	20 mg/kg	72%	79%	20%	40%	inhibition in vivo at 4 mg/kg ([1]; Rattus norvegicus, po, 4 mg/kg oral, carraghenine, read-out: percentage reduction in the inflammation): 37%; inhibition in vivo at 4 mg/kg [2, 13]: 21%
CC(C)C1Cc2ccc(CCO)cc2C1 (stereo not drawn) [Example 37, β-[2-Isopropyl-indanyl-(5)]-ethanol]	0%	1%	21%	> 256 mg/kg	40%	55%	62%	81%	60 mg/kg	41%	30%	–	0%	–
CC1Cc2ccc(CC(=O)OCCN3CCOCC3)cc2C1 (stereo not drawn) [Example 21, Hydrochloride of the morpholino-ethyl ester of [2-methyl-indanyl-(5)]-acetic acid]	–	17%	25%	130 mg/kg	–	2%	51%	71%	200 mg/kg	52%	68%	–	–	inhibition in vivo at 512 mg/kg [2, 13]: 81%
CC(C(=O)O)c1ccc2c(c1)CC(C(C)C)C2 (stereo not drawn) [Example 7, 2-Methyl-[2-Isopropyl-indanyl-(5)]-acetic acid]	43%	61%	73%	22 mg/kg	96%	–	–	–	14 mg/kg	75%	–	17%	61%	inhibition in vivo at 8 mg/kg ([1]; Rattus norvegicus, po, 8 mg/kg oral, carraghenine, read-out: percentage reduction in the inflammation): 29%
CC(C(=O)O)c1ccc2c(c1)CC(C1CCCCC1)C2 (stereo not drawn) [Example 14, 2-Methyl-[2-cyclohexyl-indanyl-(5)]-acetic acid]	11%	5%	16%	> 512 mg/kg	20%	35%	52%	62%	110 mg/kg	17%	31%	–	–	inhibition in vivo at 512 mg/kg [1, 4]: 34%; inhibition in vivo at 512 mg/kg [2, 13]: 93%
CC1(C)Cc2ccc(CC(=O)OCCN3CCOCC3)cc2C1 [Example 23, Hydrochloride of the morpholino-ethyl ester of [2,2-dimethyl-indanyl-(5)]-acetic acid]	–	9%	30%	140 mg/kg	36%	82%	45%	45%	–	50%	55%	1%	20%	inhibition in vivo at 512 mg/kg [1, 4]: 90%
CC(C(=O)OC(C)(C)CN(C)C)c1ccc2c(c1)CC(C(C)C)C2.O=C(O)/C=C\C(=O)O (stereo not drawn) [Example 29, Maleate of the dimethylamino-α-dimethyl-ethyl ester of 2-methyl-[2-isopropyl-indanyl-(5)]-acetic acid]	–	–	–	–	–	–	–	–	–	–	–	–	–	percentage reduction in the inflammation ([1]; 4 mg/kg oral, rat, carraghenine): 12%; percentage reduction in the inflammation ([1]; 16 mg/kg oral, rat, carraghenine): 35%; percentage reduction in the inflammation ([1]; 64 mg/kg oral, rat, carraghenine): 45%; percentage reduction in the inflammation ([1]; 128 mg/kg oral, rat, carraghenine): 72%; percentage reduction in the inflammation ([1]; 256 mg/kg oral, rat, carraghenine): 65%; ED50 (50% effective dose), anti-inflammatory ([1]; oral, rat, at the moment of greatest swelling of the controls): 55 mg/kg; percentage inhibition of pain reactions ([2]; 16 mg/kg oral): 8%; percentage inhibition of pain reactions ([2]; 32 mg/kg oral): 43%; percentage inhibition of pain reactions ([2]; 64 mg/kg oral): 57%; percentage inhibition of pain reactions ([2]; 128 mg/kg oral): 86%; percentage inhibition of pain reactions ([2]; 256 mg/kg oral): 96%
CC(C(=O)O)c1ccc2c(c1)CC(C)(C)C2 (stereo not drawn) [Example 16, 2-Methyl-[2,2-dimethyl-indanyl-(5)]-acetic acid]	4%	20%	37%	73 mg/kg	77%	96%	–	–	19 mg/kg	61%	94%	13%	30%	–
CCC1Cc2ccc(C(C)C(=O)O)cc2C1 (stereo not drawn) [Example 18, 2-Methyl-[2-ethyl-indanyl-(5)]-acetic acid]	31%	54%	61%	36 mg/kg	95%	–	–	–	6.5 mg/kg	66%	77%	58%	75%	inhibition in vivo at 2 mg/kg ([2]; Mus musculus, po, 2 mg/kg oral, read-out: percentage inhibition of pain reactions): 18%; inhibition in vivo at 4 mg/kg [2, 13]: 27%
CCC1Cc2ccc(C(C)CO)cc2C1 (stereo not drawn) [Example 34, 2-Methyl-β-[2-ethyl-indanyl-(5)]-ethanol]	46%	42%	51%	50 mg/kg	12%	22%	60%	94%	95 mg/kg	60%	61%	–	–	–
O=C(O)Cc1ccc2c(c1)CCC2C1CCCCC1 (stereo not drawn) [Example 5, [1-Cyclohexyl-indanyl-(5)]-acetic acid]	–	–	–	–	–	32%	–	58%	~150 mg/kg	–	–	–	–	–
